Measured values published in PubChem BioAssay AID1845211 (Molecular Pharmacology Branch, DTP, NCI, 2023).
“And” between values parts separate entries of the source, which are not always exact repeats. Equal entries are not always repeated.

System: NCI-H322M multicellular tumor spheroids, viability (% test/control)
Test: Anticancer human tumor NCI-H322M cell line growth inhibition;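 for viability, T/C: spheroids exposed to compound for seven days before readout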
Details: for viability, T/C: stronger effect = lower value
Description: Multicellular complex tumor spheroid response to DNA repair inhibitors in combination with DNA-damaging drugs
This study explores the anticancer activities of DNA-damaging drugs and inhibitors of DNA damage repair, both as single agents and in combinations. Complex tumor spheroids comprised of malignant cells, endothelial cells and mesenchymal stem cells served as an in vitro model for human solid tumors. This model system incorporates physiologically relevant features and patient-derived or established malignant cell lines with clinically relevant genetic alterations from many tumor types. Twenty-six patient-derived or established malignant cell lines were evaluated representing sarcoma, melanoma, small cell lung cancer (SCLC), non-small cell lung cancer (NSCLC), as well as bladder, ovarian and pancreatic cancers. The concentration ranges selected for each drug and investigational agent were based upon clinically achievable concentrations if the clinical Cmax of the agent was known.
Compounds. The drugs and compounds olaparib (NSC753686), talazoparib (NSC767125), berzosertib (NSC777718), elimusertib (NSC800525), nedisertib (NSC802822), VX-984 (NSC792969), AZD-1390 (NSC803789), temozolomide (NSC362856), topotecan (NSC609699), trabectedin (NSC813783), staurosporine (NSC755774), and gemcitabine (NSC613327) were obtained from the National Cancer Institute (NCI) Developmental Therapeutics Program Chemical Repository. The FDA-approved anticancer drug set is available from the Developmental Therapeutics Program at https://dtp.cancer.gov/organization/dscb/obtaining/available_plates.htm. […] The stock solutions were prepared in dimethyl sulfoxide (DMSO, Sigma-Aldrich, St. Louis, MO, cat. D2650) at 400-fold the tested concentration and stored at -70 degrees C. Prior to their use, the stock solutions were diluted in fresh medium and the final DMSO concentration in the assay was 0.25% (v/v). All drugs and investigational agents were tested over a range starting from a high concentration at or near the clinical Cmax and decreasing in half-log increments. If the clinical Cmax for an agent had not been determined, the highest concentration tested was 10 microM.
Cell Lines. The patient-derived cancer cell (PDC) lines: 156681-154-R-J1-PDC, 283228-195-R-J1-PDC, 287954-098-R-J1-PDC, 292921-168-R-J2-PDC, 349418-098-R-PDC, 425362-245-T-J1-PDC, 556581-035-R-J1-PDC, and BL0293-F563-PDC were received from the NCI Patient-Derived Models Repository (PDMR, https://pdmr.cancer.gov). The established cell lines HS-SY-2 (RRID:CVCL_8719), MPNST, and SYO-1 (RRID:CVCL_7146) were obtained from the Sloan Kettering Institute. The alveolar soft parts sarcoma cell line ASPS-1 (RRID:CVCL_S738) was established at the NCI and grown from internal seed stocks. The following established cell lines were purchased from the American Type Culture Collection (ATCC, Manassas, VA): G-401 (ATCC, cat. CRL-1441, RRID:CVCL_0270), SW982 (ATCC, cat. HTB-93, RRID:CVCL_1734), VA-ES-BJ (ATCC, cat. CRL-2138, RRID:CVCL_1785), NCI-H719 (ATCC, cat. CRL-5837, RRID:CVCL_1582), NCI-H196 (ATCC, cat. CRL-5823, RRID:CVCL_1509), NCI-H841 (ATCC, cat. CRL-5845, RRID:CVCL_1595), NCI-H1618 (ATCC, cat. CRL-5879, RRID:CVCL_1480), NCI-H1876 (ATCC, cat. CRL-5902, RRID:CVCL_1503), DMS 114 (ATCC, cat. CRL-2066; RRID:CVCL_1174), NCI-H211 (ATCC, cat. CRL-5824; RRID:CVCL_1529), and SW 1271 (ATCC, cat. CRL-2177, RRID:CVCL_1716). The small cell lung cancer cell line COR-L88 was purchased from Sigma-Aldrich (cat. 92031917-1VL, RRID:CVCL_1141). The non-small cell lung cancer cell lines NCI-H226 (RRID:CVCL_1544) and NCI-H322M (RRID:CVCL_1557) were established at the NCI and grown from internal seed stocks. Pooled donor human umbilical vein endothelial cells (HUVEC, Lonza, cat. CC-2519) and human mesenchymal stem cells (hMSC, Lonza, cat. PT-2501) were purchased from Lonza (Walkersville, MD).
Cell Culture. All cells were maintained in an incubator at 37 degrees C and 5% CO2 with 95% humidity. […]

COc1cc(C)[nH]c(=O)c1CN1CCc2c(Cl)cc(C(OC)C3COC3)c(Cl)c2C1=O (centres undefined) + Cn1nnc2c(C(N)=O)ncn2c1=O
IC50 (curve of first compound, second compound 1 µM): > 10 µM | IC50 (curve of first compound, second compound 3.16 µM): > 10 µM | IC50 (curve of first compound, second compound 10 µM): > 10 µM | IC50 (curve of first compound, second compound 31.6 µM): > 10 µM | IC50 (curve of first compound, second compound 100 µM): > 10 µM | viability, T/C (second compound 1 µM, first compound 0.0316 µM): 90.6% | viability, T/C (second compound 1 µM, first compound 0.1 µM): 93.2% | viability, T/C (second compound 1 µM, first compound 0.316 µM): 97.7% | viability, T/C (second compound 1 µM, first compound 1 µM): 106% | viability, T/C (second compound 1 µM, first compound 3.16 µM): 88.1% | viability, T/C (second compound 1 µM, first compound 10 µM): 93.3% | viability, T/C (second compound 3.16 µM, first compound 0.0316 µM): 97.5% | viability, T/C (second compound 3.16 µM, first compound 0.1 µM): 85.8% | viability, T/C (second compound 3.16 µM, first compound 0.316 µM): 97.4% | viability, T/C (second compound 3.16 µM, first compound 1 µM): 99.5% | viability, T/C (second compound 3.16 µM, first compound 3.16 µM): 95.4% | viability, T/C (second compound 3.16 µM, first compound 10 µM): 100% | viability, T/C (second compound 10 µM, first compound 0.0316 µM): 100% | viability, T/C (second compound 10 µM, first compound 0.1 µM): 108% | viability, T/C (second compound 10 µM, first compound 0.316 µM): 97.2% | viability, T/C (second compound 10 µM, first compound 1 µM): 92.3% | viability, T/C (second compound 10 µM, first compound 3.16 µM): 90.2% | viability, T/C (second compound 10 µM, first compound 10 µM): 91.6% | viability, T/C (second compound 31.6 µM, first compound 0.0316 µM): 91% | viability, T/C (second compound 31.6 µM, first compound 0.1 µM): 113% | viability, T/C (second compound 31.6 µM, first compound 0.316 µM): 102% | viability, T/C (second compound 31.6 µM, first compound 1 µM): 92.3% | viability, T/C (second compound 31.6 µM, first compound 3.16 µM): 94.1% | viability, T/C (second compound 31.6 µM, first compound 10 µM): 96.5% | viability, T/C (second compound 100 µM, first compound 0.0316 µM): 109% | viability, T/C (second compound 100 µM, first compound 0.1 µM): 106% | viability, T/C (second compound 100 µM, first compound 0.316 µM): 114% | viability, T/C (second compound 100 µM, first compound 1 µM): 89.7% | viability, T/C (second compound 100 µM, first compound 3.16 µM): 95% | viability, T/C (second compound 100 µM, first compound 10 µM): 101%

Cc1cc(C)c(CNC(=O)c2cc(-c3ccc(CN4CCOCC4)cc3)cc3c2cnn3C2CCCC2)c(=O)[nH]1 + CC[C@@]1(O)C(=O)OCc2c1cc1n(c2=O)Cc2cc3c(CN(C)C)c(O)ccc3nc2-1
IC50 (curve of first compound, second compound 0.003 µM): > 10 µM | IC50 (curve of first compound, second compound 0.00949 µM): > 10 µM | IC50 (curve of first compound, second compound 0.03 µM): > 10 µM | IC50 (curve of first compound, second compound 0.0949 µM): > 10 µM | IC50 (curve of first compound, second compound 0.3 µM): > 10 µM | viability, T/C (second compound 0.003 µM, first compound 0.0316 µM): 89% | viability, T/C (second compound 0.003 µM, first compound 0.1 µM): 82.3% | viability, T/C (second compound 0.003 µM, first compound 0.316 µM): 83.7% | viability, T/C (second compound 0.003 µM, first compound 1 µM): 86.5% | viability, T/C (second compound 0.003 µM, first compound 3.16 µM): 81.2% | viability, T/C (second compound 0.003 µM, first compound 10 µM): 112% | viability, T/C (second compound 0.00949 µM, first compound 0.0316 µM): 76.4% | viability, T/C (second compound 0.00949 µM, first compound 0.1 µM): 80.6% | viability, T/C (second compound 0.00949 µM, first compound 0.316 µM): 86.2% | viability, T/C (second compound 0.00949 µM, first compound 1 µM): 81.6% | viability, T/C (second compound 0.00949 µM, first compound 3.16 µM): 79.9% | viability, T/C (second compound 0.00949 µM, first compound 10 µM): 105% | viability, T/C (second compound 0.03 µM, first compound 0.0316 µM): 77.3% | viability, T/C (second compound 0.03 µM, first compound 0.1 µM): 84.9% | viability, T/C (second compound 0.03 µM, first compound 0.316 µM): 77.3% | viability, T/C (second compound 0.03 µM, first compound 1 µM): 76.7% | viability, T/C (second compound 0.03 µM, first compound 3.16 µM): 84.8% | viability, T/C (second compound 0.03 µM, first compound 10 µM): 101% | viability, T/C (second compound 0.0949 µM, first compound 0.0316 µM): 64.5% | viability, T/C (second compound 0.0949 µM, first compound 0.1 µM): 61.5% | viability, T/C (second compound 0.0949 µM, first compound 0.316 µM): 56.1% | viability, T/C (second compound 0.0949 µM, first compound 1 µM): 71.7% | viability, T/C (second compound 0.0949 µM, first compound 3.16 µM): 71.5% | viability, T/C (second compound 0.0949 µM, first compound 10 µM): 82.2% | viability, T/C (second compound 0.3 µM, first compound 0.0316 µM): 54.7% | viability, T/C (second compound 0.3 µM, first compound 0.1 µM): 49.3% | viability, T/C (second compound 0.3 µM, first compound 0.316 µM): 52.5% | viability, T/C (second compound 0.3 µM, first compound 1 µM): 51.5% | viability, T/C (second compound 0.3 µM, first compound 3.16 µM): 48.2% | viability, T/C (second compound 0.3 µM, first compound 10 µM): 59.5%

CC[C@@]1(O)C(=O)OCc2c1cc1n(c2=O)Cc2cc3c(CN(C)C)c(O)ccc3nc2-1
viability, T/C (compound 0.003 µM): 89.7% [middle of 10 runs] | viability, T/C (compound 0.0949 µM): 67.4% [middle of 10 runs] | viability, T/C (compound 0.3 µM): 51.5% [middle of 10 runs] | IC50 (compound alone, run of 12/12/2019): > 0.3 µM and 0.254 µM
